Publication PMC12677599 (Advanced Science, 2025)
Where two headings read alike, the source gives them in different places. Where a SMILES comes first, the peptide text is derived from it. [ ]: non-standard residue; d: D form. The star is where a group is joined. PEG4 = NCCOCCOCCOCCOCCC(=O)O; Piperidide = C1CCN(*)CC1

What was measured:
HaCaT normal cell line = assay type: cell-based; settings: 24 h
Procedure: (§1) MTT assay was conducted as previously described.^[ [44] ^] Tumor cell lines (NCI‐H460, NCI‐H838, HT‐1080, MCF‐7, PC‐3, U‐251‐MG, and U‐87 MG) were seeded in 96‐well plates at a density of 8000 cells per well in a volume of 100 µL and cultured for 24 h. Normal cell lines (HaCaT, HMEC‐1, MRC‐5, and HEK‐293) were seeded in 96‐well plates at a density of 10 000 cells per well in a volume of 100 µL and cultured for 48 h. After that, only tumor cell lines were starved with 100 µL of SFM for a further 4–6 h. Subsequently, cells were treated with 100 µL of compound solutions with different concentrations for 24 h. Cells treated with SFM and 0.5% DMSO in SFM served as blank control and growth control, respectively. Ten µL of MTT solution (5 mg mL^−1) was added to each well, followed by an additional incubation period of 2 h for tumor cells and 4 h for normal cells. Finally, the solvent in each well was swapped with 100 µL of DMSO to dissolve the formazan crystals. The absorbance was measured by the plate reader at 570 nm.
(§2) The cell viability was calculated (1) Cellviability%=ODSamplegroup−ODBlank/ODGrowthgroup−ODBlank×100%

HMEC-1 normal cell line = assay type: cell-based; settings: 24 h
Procedure: as §1, §2

HT-1080 cell line = assay type: cell-based; settings: 24 h
Procedure: as §1, §2

H838 cell line = assay type: cell-based; settings: 24 h
Procedure: as §1, §2

MRC-5 normal cell line = assay type: cell-based; settings: 24 h
Procedure: as §1, §2

[1] = test system: Cisplatin-resistance H460 cell line; assay type: cell-based; settings: 24 h
Procedure: as §1
(§3) Wild type H460 cells were cultured in a T‐75 flask and exposed to 30 µM of cisplatin. Cells were passed when the confluency reached 90%. The IC50 value of cisplatin on this cell line was evaluated every two passages. After the IC50 value was higher than 500 µM, the cultured medium was changed to normal CGM, and the cell line was cultured for another three passages. The IC50 value was evaluated again to make sure the resistance was stable. The other three resistance cell lines establishment process was similar. […] Parental NCI‐H460 cells were exposed to 10 µM 5‐fluorouracil, 2.5 µM paclitaxel, or 2.5 µM etoposide to generate 5‐fluorouracil‐resistant, paclitaxel‐resistant, and etoposide‐resistant cell lines, respectively.

[2] = test system: Paclitaxel-resistance (DR-PTX) H460 cell line; assay type: cell-based; settings: 24 h
Procedure: as §1, §3

[3] = test system: 5-Fluorouracil-resistance H460 cell line; assay type: cell-based; settings: 24 h
Procedure: as §1, §3

[4] = test system: Etoposide-resistance (DR-EPT) H460 cell line; assay type: cell-based; settings: 24 h
Procedure: as §1, §3

[5] = test system: matrix-metalloproteinase (MMP); assay: MMP cleavage detection in H460 condition medium; assay type: in vitro ADME; settings: 50 µM in condition or control medium, HPLC and MS, n = 2
Procedure: NCI‐H460 cells were seeded in 48‐well plates at a density of 24 000 cells per well in a volume of 300 µL and cultured for 24 h. Afterward, 300 µL of SFM was added to each well followed by a 10 h incubation. Next, the supernatant of each well was transferred to 1.5 mL tubes. The supernatant of control group was incubated at 60 °C for 30 min (control medium) while the supernatant of dosing group (condition medium) had no incubation. […] Last, 150 µL of samples were analyzed by analytical HPLC and ESI‐MS. HPLC condition: gradient: 100% solution A from 0 to 5 min and 100% solution A to 0% solution A from 5 to 65 min; flow rate: 1 mL min^−1; detector wavelength: 214 nm. Each sample had two replicates.

HEK-293 normal cell line = assay: cells; assay type: cell-based
Procedure: as §1, §2

H460 cell line = assay: cells; assay type: cell-based
Procedure: as §1, §2

H460 cells [6] = assay: LDH release assay; assay type: cell-based; settings: H460, 4 h dosing at each IC50 value; n = 3
Procedure: The seeding and starvation process were the same as cell antiproliferation evaluation. Cells were treated with 100 µL of compound solutions with different concentrations (compound 266 was tested at 12 µM) for 4 or 24 h. Cells treated with 0.5% DMSO in SFM and 1% Triton X‐100 in SFM served as blank control and positive control, respectively. Afterward, LDH working solution was prepared according to the instructions of the Cytotoxicity Detection Kit (LDH). Fifty µL of supernatant was transferred to another 96‐well plate, and 50 µL of LDH working solution was added to each well, followed by a 40 min incubation at room temperature. Subsequently, the absorbance of each well was measured by the plate reader at 490 nm.
The LDH release ratio was calculated as (3) LDHrelease%=ODSamplegroup−ODBlank/ODPositivegroup−ODBlank×100%

H460 cells [7] = assay: Killing rate evaluation, calcein-AM/PI double staining; assay type: cell-based; settings: IC50 concentration, n = 2
Procedure: Calcien‐AM/PI double staining assay was used. NCI‐H460 cells were seeded in a chamber‐slide (154526, Thermo Fisher Scientific) at a density of 100 000 cells per unit in a volume of 500 µL and cultured for 24 h. After starvation with 300 µL of SFM for 4 h, cells were treated with 500 µL of compound solutions with different concentrations for 2, 4, 6, 8, 10 h, respectively. Cells treated with 0.5% DMSO in SFM served as control group. Subsequently, cells in each unit were washed with EBSS once, and incubated with 500 µL of 2 µg mL^−1 calcien‐AM solution at 37 °C for 20 min. Afterward, cells were stained with 500 µL of 2 µg mL^−1 PI solution at room temperature for 15 min and washed with EBSS 3 times. Finally, 300 µL of EBSS was added into each unit. Live (green fluorescence from calcein‐AM) and dead (red fluorescence from PI) cells were then observed and imaged under a fluorescence microscope (LEICA Dmi8). This evaluation was conducted with two biological replicates. Quantitative analyses of living cells were processed with ImageJ software (threshold set: 8‐255).

For CC[C@H](C)[C@H](NC(=O)[C@H](CCCCN)NC(=O)[C@@H]1CCCN1C(=O)[C@H](CC(C)C)NC(=O)[C@@H](NC(=O)[C@H](CO)NC(=O)[C@H](CCC(=O)N1CCCCC1)NC(=O)[C@H](CC(C)C)NC(=O)[C@H](CC(=O)O)NC(=O)[C@H](CC(=O)O)NC(=O)[C@H](Cc1ccccc1)NC(=O)[C@@H](NC(=O)[C@H](CCCCN)NC(=O)[C@@H]1CCCN1C(=O)[C@H](Cc1ccccc1)NC(=O)[C@@H](N)Cc1ccccc1)[C@@H](C)CC)[C@@H](C)CC)C(=O)N[C@@H](CC(C)C)C(=O)NCC(=O)N1CCC[C@H]1C(=O)N[C@@H](CC(C)C)C(=O)NCC(=O)N[C@@H](CC(C)C)C(=O)N[C@@H](C)C(=O)NCC(=O)NCCOCCOCCOCCOCCC(=O)NCCOCCOCCOCCOCCC(=O)NCCOCCOCCOCCOCCC(=O)NCCOCCOCCOCCOCCC(N)=O [compound 209] (H-FFPKIFDDLE(Piperidide)SILPKILGPLGLAG[PEG4][PEG4][PEG4][PEG4]-NH2), the IC50 (HaCaT normal cell line) was over 100 µM, the IC50 (HMEC-1 normal cell line) was over 100 µM and the IC50 (HT-1080 cell line) was 86.8 ± 49.1 µM. The IC50 (H838 cell line) was 84.5 ± 5.91 µM, the IC50 (MRC-5 normal cell line) was over 100 µM and the IC50 [1] was 94.3 µM. For the same compound, the IC50 [2] was 97.8 µM, the IC50 [3] was 84.5 ± 4.55 µM and the IC50 [4] was over 100 µM. For the same compound, the “MMP-cleaved product detection / integrity in H460 medium” value [5] was “remained intact”, the IC50 (HEK-293 normal cell line; 24 h) was 98.6 µM and the IC50 (H460 cell line; 24 h) was 53.4 µM.

With COc1cc([C@@H]2c3cc4c(cc3[C@@H](O[C@@H]3O[C@@H]5CO[C@@H](C)O[C@H]5[C@H](O)[C@H]3O)[C@H]3COC(=O)[C@H]23)OCO4)cc(OC)c1O [Etoposide, etoposide, reference compound] the LDH release ratio (H460 cells [6]) was “no positive results”, the “cells eliminated within 10 h” value (H460 cells [7]) was “≈ 10%” and the IC50 (HEK-293 normal cell line; Homo sapiens, HEK293, Table S11, MTT, read-out: IC50 Value of chemotherapeutics, HEK-293) was 115 ± 14.7 µM. The IC50 (H460 cell line; Homo sapiens, NCI-H460, Table S11, MTT, read-out: IC50 Value of chemotherapeutics, H460) was 169 ± 29.2 µM.
